Experimental data taken from patent publication US20070128217A1 (priority 2003, published 2007).

Assays:
[1] = tested on: antibodies in sera from SARS patients (sera 1a, 1b, 2, 6, 37, 62, London, SARS-yellow, SARS-green); format: binding, human; parameters: Binding of serum 6 to linear peptides of protein X1 of SARS-CoV Urbani / Binding of serum 37 to linear peptides of protein X1 of SARS-CoV Urbani / Binding of serum 6 to looped/cyclic peptide (PEPSCAN-ELISA) / Binding of serum 37 to looped/cyclic peptide (PEPSCAN-ELISA) / Binding of serum 37 to looped/cyclic peptides of protein X1 of SARS-CoV Urbani / Binding of serum 6 to linear peptides of protein X2 / Binding of serum 37 to linear peptides of protein X2 / Binding of serum 37 to looped/cyclic peptides of protein X2 of SARS-CoV Urbani / Binding of serum 6 to linear peptides of protein M of SARS-CoV Urbani / Binding of serum 37 to linear peptides of protein M of SARS-CoV Urbani / Binding of serum 6 to looped/cyclic peptides of protein M of SARS-CoV Urbani / Binding of serum 37 to looped/cyclic peptides of protein M of SARS-CoV Urbani / Binding of serum 6 to linear peptides of protein X3 of SARS-CoV Urbani / Binding of serum 37 to linear peptides of protein X3 of SARS-CoV Urbani / Binding of serum 37 to looped/cyclic peptides of protein X3 of SARS-CoV Urbani / Binding of serum 6 to linear peptides of protein X4 of SARS-CoV Urbani / Binding of serum 37 to linear peptides of protein X4 of SARS-CoV Urbani / Binding of serum 37 to looped/cyclic peptides of protein X4 of SARS-CoV Urbani / Binding of serum 6 to linear peptides of protein X5 of SARS-CoV Urbani / Binding of serum 37 to linear peptides of protein X5 of SARS-CoV Urbani / Binding of serum 37 to looped/cyclic peptides of protein X5 of SARS-CoV Urbani / Binding of serum 6 to linear peptides of protein N of SARS-CoV Urbani / Binding of serum 37 to linear peptides of protein N of SARS-CoV Urbani / Binding of serum 6 to linear peptide (PEPSCAN-ELISA) / Binding of serum 1a to looped/cyclic peptides of protein N of SARS-CoV Urbani / Binding of serum 1b to looped/cyclic peptides of protein N of SARS-CoV Urbani / Binding of serum 2 to looped/cyclic peptides of protein N of SARS-CoV Urbani / Binding of serum 6 to looped/cyclic peptides of protein N of SARS-CoV Urbani / Binding of serum 37 to looped/cyclic peptides of protein N of SARS-CoV Urbani / Binding of serum 62 to looped/cyclic peptides of protein N of SARS-CoV Urbani / Binding of serum London to looped/cyclic peptides of protein N of SARS-CoV Urbani / Binding of serum SARS-green to looped/cyclic peptides of protein N of SARS-CoV Urbani: unit not given here
[2] = tested on: rabbit serum obtained by immunizing a rabbit with the SARS-CoV strain Frankfurt 1; format: binding; parameters: Binding of a rabbit serum to linear peptides / Binding of a rabbit serum to looped peptides / Rabbit serum linear peptides / Rabbit serum looped peptides / Binding of a rabbit serum to linear peptides of protein N of SARS-CoV Urbani (Rabbit serum linear peptides) / Binding of a rabbit serum to looped/cyclic peptides of protein N of SARS-CoV Urbani (Rabbit serum looped peptides): unit not given here
[3] = tested on: control sera (pooled serum of ten healthy LUMC hospital workers; commercial negative donor pooled serum from the Dutch bloodbank); format: binding, human; parameters: Binding of Control serum LUMC to linear peptides / Binding of Control serum Blood-bank to linear peptides / Binding of Control serum LUMC to looped peptides / Binding of Control Serum Blood-Bank to Looped peptides / Binding of Control serum LUMC to linear peptides of the protein M of SARS-CoV Urbani / Binding of Control serum Blood-bank to linear peptides of the protein M of SARS-CoV Urbani / Binding of Control serum LUMC to looped peptides of the protein M of SARS-CoV Urbani / Binding of Control Serum Blood-Bank to Looped peptides of the protein M of SARS-CoV Urbani: unit not given here
[4] = tested on: recombinant human anti-SARS-CoV antibody 03-018; format: binding; parameters: Binding of antibody 03-018 to linear peptides of the N protein of SARS-CoV Urbani / Binding of antibody 03-018 to looped/cyclic peptides of the N protein of SARS-CoV Urbani: unit not given here

Sequence | Binding of serum 1a to linear peptides of protein N of SARS-CoV Urbani [1] | Binding of serum 1a to looped/cyclic peptides of protein N of SARS-CoV Urbani [1] | Binding of serum 1b to linear peptides of protein N of SARS-CoV Urbani [1] | Binding of serum 1b to looped/cyclic peptides of protein N of SARS-CoV Urbani [1] | Binding of serum 2 to linear peptides of protein N of SARS-CoV Urbani [1] | Binding of serum 2 to looped/cyclic peptides of protein N of SARS-CoV Urbani [1] | Binding of serum 6 to linear peptides of protein N of SARS-CoV Urbani [1] | Binding of serum 6 to looped/cyclic peptides of protein N of SARS-CoV Urbani [1] | Binding of serum 37 to linear peptides of protein N of SARS-CoV Urbani [1] | Binding of serum 37 to looped/cyclic peptides of protein N of SARS-CoV Urbani [1] | Binding of serum 62 to linear peptides of protein N of SARS-CoV Urbani [1] | Binding of serum 62 to looped/cyclic peptides of protein N of SARS-CoV Urbani [1] | Binding of serum London to linear peptides of protein N of SARS-CoV Urbani [1] | Binding of serum London to looped/cyclic peptides of protein N of SARS-CoV Urbani [1] | Binding of serum SARS-green to looped/cyclic peptides of protein N of SARS-CoV Urbani [1] | Binding of serum SARS-yellow to looped/cyclic peptides of protein N of SARS-CoV Urbani [1] | Binding of a rabbit serum to linear peptides of protein N of SARS-CoV Urbani (Rabbit serum linear peptides) [2] | Binding of a rabbit serum to looped/cyclic peptides of protein N of SARS-CoV Urbani (Rabbit serum looped peptides) [2] | Binding of antibody 03-018 to linear peptides of the N protein of SARS-CoV Urbani [4] | Binding of antibody 03-018 to looped/cyclic peptides of the N protein of SARS-CoV Urbani [4] | other results
HWPQIAQFAPSASAF | 0.3 | 0.5 | 0.2 | 0.3 | 0.2 | 0.5 | 0.2 | 0.4 | 0.8 | 0.8 | 0.7 | 1.0 | 0.6 | 0.6 | 0.6 | 0.6 | 0.1 | 0.7 | 0.1 | 0.2 | Binding of serum SARS-green to linear peptides of protein N of SARS-CoV Urbani [1]: 0.4; Binding of serum SARS-yellow to linear peptides of protein N of SARS-CoV Urbani [1]: 0.8; Control Serum Blood-Bank Looped peptides [3]: 0.8; Control serum Blood-bank linear peptides [3]: 0.8; Control serum LUMC linear peptides [3]: 0.7; Control serum LUMC looped peptides [3]: 0.8
LALLLLDRLNQLESK |  | 0.3 |  | 0.2 |  | 0.4 |  | 0.2 |  | 0.5 |  | 0.5 |  | 0.4 | 0.6 | 0.4 | 0.1 | 0.6 | 0.1 | 0.2 | Binding of serum 1a to linear peptide (PEPSCAN-ELISA) [1]: 0.2; Binding of serum 1b to linear peptide (PEPSCAN-ELISA) [1]: 0.1; Binding of serum 2 to linear peptide (PEPSCAN-ELISA) [1]: 0.1; Binding of serum 6 to linear peptide (PEPSCAN-ELISA) [1]: 0.1; Binding of serum 37 to linear peptide (PEPSCAN-ELISA) [1]: 0.5; Binding of serum 62 to linear peptide (PEPSCAN-ELISA) [1]: 0.5; Binding of serum London to linear peptide (PEPSCAN-ELISA) [1]: 0.7; Binding of serum SARS-green to linear peptide (PEPSCAN-ELISA) [1]: 0.4; Binding of serum SARS-yellow to linear peptide (PEPSCAN-ELISA) [1]: 0.5; Binding of Control Serum Blood-Bank to Looped peptides [3]: 0.7; Binding of Control serum Blood-bank to linear peptides [3]: 0.7; Binding of Control serum LUMC to linear peptides [3]: 0.6; Binding of Control serum LUMC to looped peptides [3]: 0.6
VATEGALNTPKDHIG | 0.3 | 0.3 | 0.1 | 0.2 | 0.2 | 0.3 | 0.2 | 0.2 | 0.7 | 0.4 | 1.1 | 0.3 | 0.7 | 0.3 | 0.2 | 0.2 | 0.2 | 0.0 | 0.2 | 0.2 | Binding of serum SARS-green to linear peptides of protein N of SARS-CoV Urbani [1]: 0.5; Binding of serum SARS-yellow to linear peptides of protein N of SARS-CoV Urbani [1]: 0.6; Binding of Control Serum Blood-Bank to Looped peptides [3]: 0.5; Binding of Control serum Blood-bank to linear peptides [3]: 0.9; Binding of Control serum LUMC to linear peptides [3]: 0.9; Binding of Control serum LUMC to looped peptides [3]: 0.5
IGTRNPNNNAATVLQ | 0.3 | 0.4 | 0.1 | 0.3 | 0.4 | 0.7 | 0.2 | 0.4 | 0.7 | 0.9 | 0.8 | 0.8 | 0.5 | 0.6 | 0.7 | 0.5 | 0.1 | 0.4 | 0.1 | 0.3 | Binding of serum SARS-green to linear peptides of protein N of SARS-CoV Urbani [1]: 0.5; Binding of serum SARS-yellow to linear peptides of protein N of SARS-CoV Urbani [1]: 0.6; Binding of Control Serum Blood-Bank to Looped peptides [3]: 0.9; Binding of Control serum Blood-bank to linear peptides [3]: 0.8; Binding of Control serum LUMC to linear peptides [3]: 0.9; Binding of Control serum LUMC to looped peptides [3]: 0.8
